Values of other authors as cited in patent US10105355B2 (BASF SE, priority 2014, dated 2018).
Where two headings read alike, the source gives them in different places.

SMILES: CS(=O)(=O)c1ccc(C(=O)Nc2ccc(Cl)c(-c3ccccn3)c2)c(Cl)c1 [Vismodegib, 2-Chloro-N-(4-chloro-3-pyridin-2-ylphenyl)-4-methylsulfonylbenzamide]
- estimated elimination half-life (t½) (after a single dose treatment): 288 h
- estimated elimination half-life (t½) (after continuous once-daily dosing): 96 h
- exposure linearity (single doses higher than 270 mg): not linear
